Laboratory results published in PubChem BioAssay (NCI).
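A five-concentration, 48-hour dose response in 96-well plates underlies each endpoint, interpolated linearly between surrounding concentrations. TGI marks complete inhibition of growth.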

Experiments:
Assay in all cases: inhibition of tumour cell growth, NCI panel, 48 h
DMS 273 small cell lung = tested on: DMS 273 small cell lung
EKVX NSCLC = tested on: EKVX NSCLC
SNB-19 CNS = tested on: SNB-19 CNS
NCI-H460 lung = tested on: NCI-H460 lung
SK-MEL-5 melanoma = tested on: SK-MEL-5 melanoma
SW-620 colon = tested on: SW-620 colon
SR leukemia = tested on: SR leukemia
CCRF-CEM leukemia = tested on: CCRF-CEM leukemia
A549 NSCLC = tested on: A549 NSCLC
ACHN renal = tested on: ACHN renal
MALME-3M melanoma = tested on: MALME-3M melanoma
TK-10 renal = tested on: TK-10 renal
SF-539 CNS = tested on: SF-539 CNS
UACC-257 melanoma = tested on: UACC-257 melanoma
786-0 renal = tested on: 786-0 renal
SK-MEL-2 melanoma = tested on: SK-MEL-2 melanoma
UACC-62 melanoma = tested on: UACC-62 melanoma
U251 CNS = tested on: U251 CNS
DMS 114 small cell lung = tested on: DMS 114 small cell lung
IGROV1 ovarian = tested on: IGROV1 ovarian
LXFL 529 NSCLC = tested on: LXFL 529 NSCLC
HCT-15 colon = tested on: HCT-15 colon
HOP-92 NSCLC = tested on: HOP-92 NSCLC
HCC-2998 colon = tested on: HCC-2998 colon
MOLT-4 leukemia = tested on: MOLT-4 leukemia
HL-60(TB) leukemia = tested on: HL-60(TB) leukemia
DLD-1 colon = tested on: DLD-1 colon
COLO 205 colon = tested on: COLO 205 colon
OVCAR-3 ovarian = tested on: OVCAR-3 ovarian
LOX IMVI melanoma = tested on: LOX IMVI melanoma
NCI-H226 lung = tested on: NCI-H226 lung
K-562 leukemia = tested on: K-562 leukemia
SF-295 CNS = tested on: SF-295 CNS
NCI-H23 lung = tested on: NCI-H23 lung
SF-268 CNS = tested on: SF-268 CNS
HOP-62 NSCLC = tested on: HOP-62 NSCLC
SN12C renal = tested on: SN12C renal
CAKI-1 renal = tested on: CAKI-1 renal
KM20L2 colon = tested on: KM20L2 colon
SK-OV-3 ovarian = tested on: SK-OV-3 ovarian
HT29 colon = tested on: HT29 colon
RXF-631 renal = tested on: RXF-631 renal
RXF 393 renal = tested on: RXF 393 renal
KM12 colon = tested on: KM12 colon
OVCAR-8 ovarian = tested on: OVCAR-8 ovarian
RPMI-8226 leukemia = tested on: RPMI-8226 leukemia
NCI-H522 lung = tested on: NCI-H522 lung
HCT-116 colon = tested on: HCT-116 colon
SK-MEL-28 melanoma = tested on: SK-MEL-28 melanoma

Measured: TGI

Cn1c2c(c3ccccc31)C1C(=O)N(c3ccccc3)C(=O)C1CC2 (centres undefined)
> 303 µM: DMS 273 small cell lung | EKVX NSCLC | SNB-19 CNS | NCI-H460 lung | SK-MEL-5 melanoma | SW-620 colon | SR leukemia | CCRF-CEM leukemia | A549 NSCLC | ACHN renal | MALME-3M melanoma | TK-10 renal | SF-539 CNS | UACC-257 melanoma | 786-0 renal | SK-MEL-2 melanoma | UACC-62 melanoma | U251 CNS | DMS 114 small cell lung | IGROV1 ovarian | LXFL 529 NSCLC | HCT-15 colon | HOP-92 NSCLC | HCC-2998 colon | MOLT-4 leukemia | HL-60(TB) leukemia | DLD-1 colon | COLO 205 colon | OVCAR-3 ovarian | LOX IMVI melanoma | NCI-H226 lung | K-562 leukemia | SF-295 CNS | NCI-H23 lung | SF-268 CNS | HOP-62 NSCLC | SN12C renal | CAKI-1 renal | KM20L2 colon | SK-OV-3 ovarian | HT29 colon | RXF-631 renal | RXF 393 renal | KM12 colon | OVCAR-8 ovarian | RPMI-8226 leukemia | NCI-H522 lung | HCT-116 colon | SK-MEL-28 melanoma
